Earlier results in patent USRE41289E1, “Ultrashort acting hypnotic barbiturates” (ARYx Therapeutics, Inc., priority 2000, dated 2010).

Details: in vivo

CN1C(=O)NC(=O)C(C)(C2=CCCCC2)C1=O (stereo not shown) [hexobarbital]
half-life of elimination: 2.7 to 7 h
